Molecular target: T1, PmGBE57 (Petrotoga mobilis, UniProt A9BH92)
T1 construct: gene Pmob_0588; full-length codon-optimized gene in pET28a(+), C-terminal His-tag, expressed in E. coli BL21(DE3), Ni-NTA purified
T1 sequence (A9BH92 1-538): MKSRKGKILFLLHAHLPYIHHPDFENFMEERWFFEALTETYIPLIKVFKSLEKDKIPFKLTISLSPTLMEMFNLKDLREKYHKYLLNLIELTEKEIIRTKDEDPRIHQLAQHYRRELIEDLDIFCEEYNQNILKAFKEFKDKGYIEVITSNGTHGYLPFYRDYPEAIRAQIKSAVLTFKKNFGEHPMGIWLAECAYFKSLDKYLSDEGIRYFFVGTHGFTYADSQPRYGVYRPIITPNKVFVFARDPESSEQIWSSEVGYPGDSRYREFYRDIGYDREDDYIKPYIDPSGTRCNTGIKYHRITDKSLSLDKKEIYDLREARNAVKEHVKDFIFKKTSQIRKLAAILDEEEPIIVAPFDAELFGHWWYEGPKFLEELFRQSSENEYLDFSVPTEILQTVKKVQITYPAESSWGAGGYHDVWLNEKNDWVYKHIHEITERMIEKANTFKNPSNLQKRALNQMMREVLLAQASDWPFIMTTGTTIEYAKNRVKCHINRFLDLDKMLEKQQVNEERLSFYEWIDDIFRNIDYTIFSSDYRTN
Assay: HPAEC-PAD chain length analysis after […] h
Type: biochemical
Settings: 1 U^B/g substrate, hydrolysis only, reagent also contains DP6

For `OC[C@H]1O[C@H](O[C@H]2[C@H](O)[C@@H](O)[C@@H](O[C@H]3[C@H](O)[C@@H](O)[C@@H](O[C@H]4[C@H](O)[C@@H](O)[C@@H](O[C@H]5[C@H](O)[C@@H](O)[C@@H](O[C@H]6[C@H](O)[C@@H](O)[C@@H](O[C@H]7[C@H](O)[C@@H](O)C(O)O[C@@H]7CO)O[C@@H]6CO)O[C@@H]5CO)O[C@@H]4CO)O[C@@H]3CO)O[C@@H]2CO)[C@H](O)[C@@H](O)[C@@H]1O` (stereo partly shown) [MD7, maltoheptaose], the “HPAEC-PAD chain length analysis after 24 h” value was “PmGBE57 showed the ability to utilize the short DP7 chains”.

— article PMC10708623, “The Synergistic Effect of GH13 and GH57 GBEs of Petrotoga mobilis Results in α-Glucan Molecules with a Higher Branch Density” (Polymers, 2023)
